How the values were obtained:
Type in all cases: cell-based, human
ADAD spheroids [1] = experiment: Aβ deposition by whole mount immunostaining (6E10) in ADAD spheroids; conditions: ADAD spheroids treated from PID16 to 28; 5 μM β-secretase inhibitor IV or 40 μM DAPT; immunostained at PID28
Procedure: (§1) β-secretase inhibitor IV (cat #565788), DAPT (cat #D5942), and lamivudine (3TC) (cat #PHR1365) were purchased from Millipore Sigma. To make the stock solution, 5 mM β-secretase inhibitor IV and 40 mM DAPT were dissolved in DMSO and 100 mM 3TC was dissolved in sterile water. For thin gel culture, 2.5 μM β-secretase inhibitor IV, 20 μM DAPT, or 100 μM 3TC was added to the fresh media and used for half media changes starting at PID16 or PID22. For spheroids culture, 5 μM β-secretase inhibitor IV, 40 μM DAPT, or 100 μM 3TC was added to the fresh media and used for half media changes starting at PID16 or PID22.
(§2) Whole mount immunofluorescence staining of spheroid: For whole-mount immunostaining of neuronal spheroid, 3D cell culture clearing kit (abcam: ab243299) was used with modifications. Briefly, fixed spheroids on transwell inserts were permeabilized by sequential dehydration and rehydration using different concentrations of ethanol. […]
(§3) For quantification of the total volume of Aβ deposits, volume and area of the spheroid, co-localization analysis in tau related pathologies, and number of TUNEL positive cells or total cells, the “surface” module in Imaris was used for 3D reconstruction and quantification. […]

LOAD spheroids = experiment: Aβ deposition by whole mount immunostaining (6E10) in LOAD spheroids; conditions: treatment started at PID22 (after onset of Aβ deposition), examined at PID28
Procedure: as §1, §2, §3

ADAD 3D-CNs = experiment: p-tau (AT8) and K63-ubiquitin/p-tau (PHF1) immunostaining in ADAD 3D-CNs; conditions: ADAD 3D-CNs treated with β-secretase inhibitor IV or DAPT
Procedure: as §1
Immunofluorescence staining of thin gel: The fixed thin gel cultures were permeabilized in PBST (0.2% (vol/vol) TritonX-100 in PBS) at room temperature for 1h and blocked with blocking buffer (5% (wt/vol) BSA, 2% (wt/vol) normal goat serum, and 0.2% (vol/vol) TritonX-100) overnight at 4° C. The blocking buffer was removed from thin gel culture plates and primary antibodies diluted in blocking buffer were added to the plate followed by incubation overnight at 4° C. with gentle rocking. After washing 5 times with PBST, the cells were then incubated with secondary antibodies diluted in blocking buffer at room temperature for 3-5 hours or 4° C. overnight. Cells were washed 5 times with PBST, incubated with DAPI (Sigma) for 20 min at room temperature if needed and sealed with a drop of anti-fade prolong gold reagent (Life technology). Plates were sealed with parafilm and stored at 4° C. before imaging. The immunofluorescence images were taken by Leica SP5X white light laser confocal system.
(§4) For quantification of the total volume of Aβ deposits, volume and area of the spheroid, co-localization analysis in tau related pathologies, and number of TUNEL positive cells or total cells, the “surface” module in Imaris was used for 3D reconstruction and quantification. For measuring the intensity of neurite outgrowth in spheroid, Image J was used by measuring the mean intensity at each region (distal, middle, and proximal).

ADAD spheroids [2] = experiment: Cell death (TUNEL staining) in ADAD spheroids; conditions: ADAD spheroids at PID28, treatment starting at PID16
Procedure: as §1, §4
TUNEL assay: DeadEND Fluorometric TUNEL system kit was purchased from Promega (G3250) and TUNEL assay was performed according to the manufacturer's description. Briefly, the cryosections of neuronal spheroids were permeabilized by 0.2% TritonX-100 in PBS for 5 mins followed by two 5 mins washes in PBS. […]

Molecule	Aβ deposition (ADAD spheroids [1])	effect on Aβ deposition (LOAD spheroids)	K63-ubiquitin+p-tau (PHF1) level (ADAD 3D-CNs)	p-tau (AT8) level (ADAD 3D-CNs)	cell death / neuronal death (ADAD spheroids [2])	reduction of Aβ deposition (LOAD spheroids) [%]
β-secretase inhibitor IV	reduction	non-significant effect	significant reduction	significant reduction	reduced	
C[C@H](NC(=O)Cc1cc(F)cc(F)c1)C(=O)N[C@H](C(=O)OC(C)(C)C)c1ccccc1 [DAPT]	reduction		significant reduction	significant reduction	reduced	~30
